Results on 2 compounds are retold here after patent publication US20240374635A1, “COMPOSITIONS AND METHODS” (Glasport Bio Limited, priority 2021, published 2024).

Where two headings read alike, the source gives them in different places.

One assay deals with cattle. Briefly: In vivo rumen ORP in cattle with ORP measurement bolus. On the procedure:
Experimental: An in vivo study was conducted to investigate the effect of feed additives of the invention on rumen ORP in cattle. The study involved administering an ORP measurement bolus to each cow to allow for an ORP reading to be recorded every 10 minutes, dividing the cattle into three groups: a control group (receiving feed without any feed additive of the invention), low dose (receiving 100 g CaO2 per day along with feed—with the additive being delivered at a single morning feeding) and a high dose group (receiving 200 g CaO2 per day along with feed—with the additive being delivered at a single morning feeding). The rumen was opened after approximately 450 hours.
The results of this study are given in FIG. 20 which charts the ORP level in the rumen (mV) over time measured at 10-minute intervals for the control group, the low-dose group, and the high-dose group respectively.
An average baseline ORP reading measured for the animals from the control group is about −440 mV. This average baseline ORP reading of about −440 mV may be useful to aid comparison between control ORP and increases in ORP due to the animals consuming the additive. After approximately 450 hours the rumen was opened and the ORP results after this time point should be disregarded.

Another assay relates to adult ewes. On the procedure: A methane emission study was carried out to determine the impact of feeding different doses of the feed additive would have on enteric fermentation. […] Any refused concentrate/additive was recorded. Sheep then had ad libitum access to grass silage and water throughout the day, with the amount of silage eaten recorded for each animal.
Body weights of all animals were recorded at the start of the experiment (‘week 1’) and after 49 days (‘week 7’).
Methane emissions were recorded through use of Portable Accumulation Chambers (PAC). Briefly: these are sealed chambers in which individual animals remain for a 1 hour time period. During this time period methane, oxygen and carbon dioxide measurements are taken at 0 minutes, 25 minutes and 50 minutes. […] Animals were placed in the PAC on week 1 and […] as defined above. 12 adult ewes, at least 2 years old, were divided into 2 groupings of 6 sheep. One group received a 2.355 g dose of Urea-Hydrogen Peroxide (termed Group 1) per day and the other received a 4.71 g dose of Urea-Hydrogen Peroxide (termed Group 2) per day.
Control Group: Sheep were fed 0.5 kg of feed concentrate comprising animal feed, on a daily basis over a 7 week period.
Treatment Group 1 (UHP 0.5X): Sheep were fed 0.5 kg of feed concentrate comprising the same animal feed as the control group and 0.15% (by weight) of urea hydrogen peroxide, on a daily basis over a 7 week period.
Treatment Group 2 (UHP 1X): Sheep were fed 0.5 kg of feed concentrate comprising the same animal feed as the control group and 0.3% (by weight) of urea hydrogen peroxide, on a daily basis over a 7 week period.

The conditions of assay [1]: for Average Weight Gain: day 1 to day 49; for Average Daily DMI: group average; for Gain:Feed Ratio: group basis; for Average Finishing Weight / Average Starting Weight: group of 20 sheep. On the procedure: Experimental: A study was conducted to determine what impact consumption of the feed additives would have on animal performance. It is estimated that between 2-12% of the energy content of animal feed is lost through enteric fermentation. This study examined whether though potential reductions in enteric fermentation additional energy would be diverted to the animal, with this being seen via an improved feed:gain metric, that is the ability of the animal to improve the rate of increase in its body weight per unit of feed eaten. 60 adult ewes (average starting body weight of approximately 80 kg) were divided into 3 equal groups of 20 sheep per group. Animals were fed as described in the Animal Study—Methane Emissions above. Animals were grouped into a control group (no feed additive given); treatment group 1 (2.355 g Urea-Hydrogen Peroxide given daily); treatment group 2 (4.71 g Urea-Hydrogen Peroxide given daily).
Animals were weighed at the start of the experiment (day 1) and at the end of the study (day 49). All feed (DMI) consumed was weighed and recorded throughout the study.
A feed:gain ratio was calculated as follows: […]
The ratio of weight gain to DMI was then calculated to determine the feed efficiency of each animal.

Where [2] appears, read: Treatment Group 1, 2.355 g UHP per day.
Where [3] appears, read: Treatment Group 1, 2.355 g UHP per day, Week 1.
Where [4] appears, read: Treatment Group 1, 2.355 g UHP per day, Week 7.
[5] abbreviates: Treatment Group 2, 4.71 g UHP per day.
[6] abbreviates: Treatment Group 2, 4.71 g UHP per day, Week 1.
Setting [7] is: Treatment Group 2, 4.71 g UHP per day, Week 7.

As to `[Ca+2].[O-][O-]` [CaO2, calcium peroxide], in the assay on cattle (100 g or 200 g CaO2 per day with feed, sustained period of at least one hour), the “increase of ORP in the rumen after each morning feed” value is “at least +100 mV”. Besides, the “initial period (correction phase) of the ORP profile” value with cattle (100 g or 200 g CaO2 per day, temporary reductions below baseline between administrations) fell in the range of 300 to 350 h.

For the compound `NC(N)=O.OO` [urea hydrogen peroxide], in the assay on adult ewes (setting [2]), the “CH4/BW Difference week 7 versus week 1” value is reported as 11.24% and the “CH4/day Difference week 7 versus week 1” value stood at 5.828%. Further, in the assay with adult ewes (setting [3]), the “CH4/BW (group mean)” value is 0.3705 litres of methane per kg of animal body weight and the “CH4/day (group mean)” value was determined as 29.32. Besides, in the assay on adult ewes (setting [4]), the “CH4/BW (group mean)” value was 0.3288 litres of methane per kg of animal body weight and the “CH4/day (group mean)” value is reported as 27.61. Moreover, in the assay on adult ewes (setting [5]), the “CH4/BW Difference week 7 versus week 1” value turned out to be 22.61% and the “CH4/day Difference week 7 versus week 1” value is 18.04%. Also, in the assay on adult ewes (setting [6]), the “CH4/BW (group mean)” value is 0.3753 litres of methane per kg of animal body weight and the “CH4/day (group mean)” value is 29.82. In the assay with adult ewes (setting [7]), the “CH4/BW (group mean)” value was 0.2905 litres of methane per kg of animal body weight and the “CH4/day (group mean)” value is on record as 24.44. Also, the “methane production by week 7” value in the assay on adult ewes (treatment groups, feed concentrate comprising urea hydrogen peroxide) is recorded as “significant decrease in methane production”. For the same compound, in assay [1] (Treatment 1, 2.355 g UHP daily), the “Average Weight Gain” value was 5.65 kg, the “Average Daily DMI” value was determined as 1.6345 kg, the “Gain:Feed Ratio” value was found to be 0.0864 and the “Average Finishing Weight” value was 82.55 kg. Moreover, the “Average Starting Weight” value in assay [1] (Treatment 1, 2.355 g UHP daily) was 76.9 kg. For the same compound, in assay [1] (Treatment 2, 4.71 g UHP daily), the “Average Weight Gain” value is 6.325 kg, the “Average Daily DMI” value is 1.516 kg, the “Gain:Feed Ratio” value is reported as 0.1043 and the “Average Finishing Weight” value came to 81.275 kg. Besides, the “Average Starting Weight” value in assay [1] (Treatment 2, 4.71 g UHP daily) was found to be 74.95 kg. Further, the “weight gain versus control group” value in assay [1] (treatment groups) is given as “gained more weight on average than the control group”.
